Patent EP4752142A1, “5-HT2A RECEPTOR AGONIST, AND PREPARATION METHOD THEREFOR AND USE THEREOF” (Innovstone Therapeutics Limited, priority 2023, dated 2025)
pEC50, pKi: −log10 of the molar value.

How the values were obtained:
[1] = target: T1, 5-HT2A receptor (Homo sapiens, UniProt P28223); assay: 5-HT2A receptor isotope competition affinity assay; assay type: binding; settings: competition with [3H]-Ketanserin, 1 hour, room temperature; read-out: 5-HT2A receptor/Ki
Experimental: A radiolabeled ligand (agonist or antagonist) incubated with receptor protein could form a receptor-ligand complex. An added test compound could compete with the isotopically labeled ligand for the receptor binding, eventually forming a relative steady-state equilibrium. The affinity of the test compound for the receptor was indirectly evaluated by measuring the dissociation of the isotopically labeled ligand from the receptor.
A 100x serial gradient dilution of compounds was prepared in DMSO, starting from 1 mM with 4-fold serial dilutions, resulting in 10 concentration points. Using a pipettor, 1 µL of each gradient concentration of the test compound (final concentration starting at 10 µM, 4-fold serial dilutions, 10 concentration points) was transferred to a 96-well assay plate, to each well of which 49 µL of 5-HT2A receptor protein (102 µg/mL, prepared in an assay buffer: 50 mM Tris-HCl, pH 7.4) had been added in advance (final concentration 5 µg/well). This was followed by the addition of 50 µL of isotopically labeled [^3H]-Ketanserin (2 nM, 2× final concentration, prepared in the assay buffer). The plate was sealed and incubated on a shaker at room temperature for 1 hour. The reaction mixture was filtered through a Unifilter-96 GF/C filter plate pre-treated with 0.3% PEI. The filter plate was washed with a precooled (4°C) assay buffer and then dried in an incubator at 50°C. A scintillation liquid was added, and the plate was read using a MicroBeta2 instrument. The percentage inhibition was calculated using the equation: %Inhibition=(CountHigh Signal Control-CountSample)/(CountHigh Signal Control-CountLow Signal Control)*100. A four-parameter logistic fit was used to calculate the IC50 value. High Signal Control: No compound group (the same volume of DMSO substituted). Low Signal Control: Ketanserin group (non-isotopically labeled, 2× final concentration). Table 1: Results of 5-HT2A receptor isotope competition affinity assay, Ki Values

[2] = test system: Mice (strain C57BL/6); assay: Head-twitch response test in mice; assay type: in vivo; settings: dose 30 mpk; reflects hallucinogenic effect; Figure 1
Experimental: (§1) • 1. Assay conditions and materials: • 1.1 Animal source: Mice (strain C57BL/6, purchased from Shanghai Lingchang Biotechnology Co., Ltd., 8-9 weeks old, 20-24 grams, male) • 1.2 Conditions: Temperature (20-25°C), relative humidity (40-70%), light cycle (12-hour light cycle (7:00-19:00)), free access to food and water • 1.3 Marking: Animals were marked on the tail. • 2. Assay procedure:
• A) Adaptation: Starting from the second day after the animals arrived, they were conciliated by stroking and acclimated for seven consecutive days to reduce their stress response. • B) Grouping: One hour before the assay test, animals were placed in the testing room for adaptation. On the test day, animals were randomly grouped according to body weight. Each group contained 12 animals. • C) Assay Dosing: Animal body weight was measured, and compounds were administered according to the group, with a dosing volume of 10 mL/kg for all. • D) Testing: After dosing, animals were placed in transparent observation chambers, and head-twitch behaviors were recorded over 60 minutes. • E) Assay test indicator: Total number of head-twitches within 60 minutes after dosing.

[3] = target: T1, 5-HT2A receptor; assay: 5-HT2AR calcium flux activation assay; assay type: cell-based; parameters: expressed in transfected cells; host or cells: HEK293; settings: HEK293 cells stably expressing human 5-HT2A receptor; for pEC50: FLIPR, Fluo-4, read-out: EC50; for Emax: Max Dose 100000 nM
Experimental: • 1) For cultured cells (HEK293 cells stably expressing human 5-HT2A receptor), they were first washed twice with pre-warmed DPBS, then an appropriate amount of trypsin was added for digestion at 37°C for 1 minute; an appropriate amount of the culture medium was then added to stop digestion, and 1 mL was taken for counting and vitality determination using Vi-CELL™. • 2) Cells were centrifuged at 1000 rpm for 5 minutes. • 3) The supernatant was gently discarded, being careful not to disturb the cell pellet. • 4) Cells were diluted with the culture medium to 1×10^6 cells/mL (20,000 cells/20 µL) and seeded into 384-well poly-lysine coated cell plates. They were cultured at 37°C under 5% CO2 for 16-20 hours.
• 1) Preparation of 250 mM Probenecid solution: According to the kit instructions, 77 mg of probenecid was added to 1 mL of FLIPR buffer salt solution. Prepared fresh for immediate use. • 2) Preparation of Fluo-4 Direct™ (2×, 8 µM) loading buffer: According to the kit instructions, the required amount of Fluo-4 Direct™ was thawed in advance. 10 mL of FLIPR buffer salt solution and 0.2 mL of 250 mM Probenecid solution were added to each vial. It was vortexed in the dark for >5 minutes. Prepared fresh for immediate use.
• 1) Preparation of control and test compound plates: Compounds were gradient diluted to 10 points using Echo, and 750 nL was transferred to the corresponding compound plate. • 2) 30 µL of assay buffer salt solution was added to the corresponding compound plate, which was then centrifuged at 1000 rpm for 1 minute; • 3) The cell plate prepared the day before was taken from the incubator, and 20 µL of 2× Fluo-4 Direct™ buffer was added to each well, making a total volume of 40 µL. • 4) The plate was incubated in a 5% CO2, 37°C incubator for 50 minutes, then left at room temperature for 10 minutes. • 5) The compound plate, the cell plate, and pipette tips were placed into the instrument; • 6) The FLIPR instrument software was run according to the set program, adding 10 µL of the specified concentrations of test compounds and control compounds to the cell plate, and fluorescence signals were read. After reading, data was exported using the "Max-Min", "Read 1 to 90" method in the software. • 7) Data analysis: Agonist Activation% = (RLU−DMSO)/(HC−DMSO)*100 [formula] • RLU: Relative Light Units, read values 1 to 90; • HC: Average fluorescence signal of the highest concentration point of the agonist; • DMSO: Average fluorescence signal of the DMSO group; • 8) Data was fitted using Prism 5.0.
For agonist: EC50 was fitted using "log(agonist) vs. response -- Variable slope". Table 2: 5-HT2AR Calcium Flux Activation Assay

[4] = test system: Mice (strain C57BL/6); assay: Forced swim test in naive mice 7 days after single administration; assay type: in vivo; settings: compared to vehicle control group, p<0.05, Figure 2
Experimental: as §1
• A) Adaptation: Starting from the second day after the animals arrived, they were conciliated by stroking and acclimated for seven consecutive days to reduce their stress response. • B) Behavioral test (FST test): Compound and Psilocybin groups (15 animals per group) continued to be housed for 7 days after dosing. On day 7, the Ketamine group (15 animals per group) was dosed 30 minutes before being placed, together with the compound and Psilocybin groups, into forced swim observation chambers for 6 minutes. Immobility time during the last 4 minutes was calculated. • C) Assay test indicator: Immobility time of animals during 2-6 minutes of the forced swim test.

T1 sequence (P28223 whole entry): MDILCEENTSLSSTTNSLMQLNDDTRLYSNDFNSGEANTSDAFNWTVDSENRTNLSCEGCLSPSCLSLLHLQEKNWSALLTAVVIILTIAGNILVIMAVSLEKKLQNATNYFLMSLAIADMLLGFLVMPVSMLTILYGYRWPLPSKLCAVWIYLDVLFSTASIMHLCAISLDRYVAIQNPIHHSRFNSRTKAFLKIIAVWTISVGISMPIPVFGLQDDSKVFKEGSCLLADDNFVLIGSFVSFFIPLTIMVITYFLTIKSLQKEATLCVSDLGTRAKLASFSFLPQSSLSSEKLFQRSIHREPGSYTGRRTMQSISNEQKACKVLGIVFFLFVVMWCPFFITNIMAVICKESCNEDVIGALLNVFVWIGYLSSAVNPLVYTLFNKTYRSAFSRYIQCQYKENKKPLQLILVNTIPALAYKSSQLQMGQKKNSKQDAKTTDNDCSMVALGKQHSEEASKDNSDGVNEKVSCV

Row | Compound | pKi [1] | Total number of head-twitches within 60 minutes after dosing [2] | pEC50 [3] | Emax [3] [%] | Immobility time of animals during 2-6 minutes of the forced swim test [4]
1 | Oc1cccc2[nH]cc([C@@H]3CCN(CCCn4nccn4)C3)c12 [Compound 182, (S)-3-(1-(3-(2H-1,2,3-triazol-2-yl)propyl)pyrrolidin-3-yl)-1H-indol-4-ol] | > 7.00 | did not cause significant head-twitch behavior | 7.68 | 57.4 | 
2 | Oc1cccc2[nH]cc(C3CCN(CCCn4nccn4)C3)c12 (stereo not drawn) [Compound 180, 3-(1-(3-(2H-1,2,3-triazol-2-yl)propyl)pyrrolidin-3-yl)-1H-indol-4-ol] | > 7.00 | did not cause significant head-twitch behavior | 8.00 | 59.3 | significantly reduced immobility time
